System: Bifidobacterium animalis AMT30
Test: Ability of Bifidobacterium animalis AMT30 to grow in the presence of selected antibiotics (shared cultures, Garche's liquid medium)
Assay type: cell-based
Settings: for growth of AMT30 in the presence of the antibiotic (in words): 24 h shared culture, relative to control culture or inoculum; for The number of B. animalis AMT30 after 24 hours of incubation: inoculum AMT30 4.9 × 10^6 cfu/ml, antibiotic at concentration corresponding to the animal dose per kg b.w., control without antibiotic 2.4 × 10^9
Protocol: Studies on the ability to grow of Bifidobacterium animalis AMT30 in the presence on 20 selected antibiotics were performed using shared cultures method. For this purpose Garche's liquid medium was inoculated with both Bifidobacterium animalis AMT30 in an amount of 4.9×10^6 colony forming units/ml and one of 20 antibiotics in concentration corresponding to an antibiotic dose used in animal treatment per kilogram of body weight. The culture was carried out in three parallel tubes under anaerobic conditions at 37° C. for 24 hours. In addition, parallel control culture of the studied strain without presence of selected antibiotics was carried out. The number of the live cells was determined directly after inoculation and after 24 hours. Incubation of bacteria on Petri dishes was carried out at 37° C. for 48 hours under anaerobic conditions (sealed jar with GasPack AN0025A cartridge, Oxoid).

## c1ccc([C@H]2CN3CCSC3=N2)cc1 [Levamisole]
  growth of AMT30 in the presence of the antibiotic (in words): Outstanding activity to multiply

## CC[C@H]1OC(=O)C[C@@H](O)[C@H](C)[C@@H](O[C@@H]2O[C@H](C)[C@@H](O)[C@H](N(C)C)[C@H]2O)[C@@H](CCN2C[C@H](C)C[C@H](C)C2)C[C@@H](C)C(=O)/C=C/C(C)=C/[C@@H]1CO[C@@H]1O[C@H](C)[C@@H](O)[C@@H](OC)[C@H]1OC [Tilmicosin]
  growth of AMT30 in the presence of the antibiotic (in words): remained at the level of inoculum

## CCCc1ncc(C[n+]2ccccc2C)c(N)n1 [Amprolium]
  growth of AMT30 in the presence of the antibiotic (in words): Outstanding activity to multiply

## Colistin
  growth of AMT30 in the presence of the antibiotic (in words): Outstanding activity to multiply
  The number of B. animalis AMT30 after 24 hours of incubation: 1.9 × 10^9 cfu/ml

## COC(=O)Nc1nc2cc(C(=O)c3ccc(F)cc3)ccc2[nH]1 [Flubendazole]
  growth of AMT30 in the presence of the antibiotic (in words): Outstanding activity to multiply

## CC[C@H]1OC(=O)C[C@@H](O)[C@H](C)[C@@H](O[C@@H]2O[C@H](C)[C@@H](O[C@H]3C[C@@](C)(O)[C@@H](O)[C@H](C)O3)[C@H](N(C)C)[C@H]2O)[C@@H](CC=O)C[C@@H](C)C(=O)/C=C/C(C)=C/[C@@H]1CO[C@@H]1O[C@H](C)[C@@H](O)[C@@H](OC)[C@H]1OC [Tylosin]
  growth of AMT30 in the presence of the antibiotic (in words): remained at the level of inoculum

## CC[C@H]1OC(=O)C[C@@H](OC(C)=O)[C@H](C)[C@@H](O[C@@H]2O[C@H](C)[C@@H](O[C@H]3C[C@@](C)(O)[C@@H](OC(=O)CC(C)C)[C@H](C)O3)[C@H](N(C)C)[C@H]2O)[C@@H](CC=O)C[C@@H](C)C(=O)/C=C/C(C)=C/[C@@H]1CO[C@@H]1O[C@H](C)[C@@H](O)[C@@H](OC)[C@H]1OC [Tylvalosin]
  The number of B. animalis AMT30 after 24 hours of incubation: 3.2 × 10^5 cfu/ml

## Cc1cc(-n2c(=O)[nH]c(=O)n(C)c2=O)ccc1Oc1ccc(SC(F)(F)F)cc1 [Toltrazuril]
  growth of AMT30 in the presence of the antibiotic (in words): Outstanding activity to multiply

## Neomycin
  growth of AMT30 in the presence of the antibiotic (in words): Outstanding activity to multiply
  The number of B. animalis AMT30 after 24 hours of incubation: 3.3 × 10^7 cfu/ml

## Nc1ccc(S(=O)(=O)[N-]c2cncc(Cl)n2)cc1.[Na+] [Sodium sulfachloropyrazine]
  growth of AMT30 in the presence of the antibiotic (in words): Outstanding activity to multiply
  The number of B. animalis AMT30 after 24 hours of incubation: 2.4 × 10^9 cfu/ml
